# Like-named read-outs stand apart in the source and are kept apart here.
# Key:
# [1] = test system: MDA-MB-435 breast cancer cell line; test: Cell growth inhibition, MDA-MB-435; type: cell-based, human
# Protocol: (§1) A direct comparison of (−)-gossypol, apogossypol and apogossypolone for their activity in inhibition of cell growth in PC-3 and LnCap prostate cancer cell lines was carried out.
# (§2) Additional cell growth inhibition studies were performed using the MDA-MB-231 (subclone 2LMP), T47D, and MDA-MB-435 breast cancer cell lines. Racemic gossypol, apogossypol, apogossypolone, (+)-apogossypol, (−)-apogossypol, and tetra-acetyl apogossypolone (Formula VIII) were tested as described above.
# [2] = test system: MDA-MB-231 (subclone 2LMP) breast cancer cell line; test: Cell growth inhibition, MDA-MB-231 (subclone 2LMP); type: cell-based, human; conditions: for fold more potent than gossypol: MDA-MB-231 cell line
# Protocol: as §1, §2
# [3] = test system: T47D breast cancer cell line; test: Cell growth inhibition, T47D; type: cell-based, human
# Protocol: as §1, §2
# [4] = test system: PC-3 prostate cancer cell line; test: Inhibition of cell growth, MTT assay, PC-3; type: cell-based, human; conditions: for potency relative to (−)-gossypol in inhibition of cell growth: PC-3 cell line, 3-5 independent experiments
# Protocol: as §1
# [5] = target: T1, human Mcl-1 protein (amino acids 171-327) (Homo sapiens, UniProt Q07820); test: Fluorescence polarization binding assay for the Mcl-1 protein (Flu-Bid-21 probe)
# T1 construct: The fragment encoding amino acids 171-327 was cloned into the pHis-TEV vector; 8xHis (N); made in house; host or cells: E. coli BL21(DE3)
# [6] = Maximal tolerated dose (MTD) in mice; type: in vivo; conditions: for MTD: mouse, in vivo
# Protocol: To confirm this prediction, the maximal tolerated dose (MTD) of apogossypolone and (−)-gossypol was evaluated in mice using two different routes of administrations (oral and intravenous). For oral administration (oral gavage 5 days/week), the MTD of apogossypolone was above 240 mg/kg while the MTD for (−)-gossypol was about 50 mg/kg. For intravenous administration (every other day and 3 days/week), the MTD of apogossypolone was about 80 mg/kg while the MTD for (−)-gossypol was about 10 mg/kg. In both routes of administration, the MTD of apogossypolone was 8-times better than (−)-gossypol.
# [7] = test system: LnCap prostate cancer cell line; test: Inhibition of cell growth, MTT assay, LnCap; type: cell-based; conditions: read-out: IC50, inhibition of cell growth
# Protocol: as §1
# [8] = target: recombinant human Bcl-2 (Homo sapiens, UniProt P10415); test: Fluorescence polarization binding assay for Bcl-2 (Bid-FAM peptide displacement)
# [9] = Storage stability of the sample; type: physicochemical
# [10] = test system: PC-3 xenografts; test: Antitumor activity in PC-3 xenograft model, alone or with X-ray irradiation; type: in vivo, nude mice; conditions: for complete tumor regression: Day 57
# Protocol: An in vivo study of apogossypolone was carried out using a PC-3 xenograft model in nude mice to evaluate the antitumor activity of apogossypolone alone or in combination with X-ray irradiation. Nude mice with established PC-3 xenografts (150 mm^3 in size) were treated with (1) apogossypolone 200 mg/kg p.o. q.d. 5×4 weeks; (2) fractionated X-ray irradiation to the tumor only, with the animal body shielded, at a dose of 2 Gy q.d. 5×3 weeks, total 30 Gy; and (3) a combination of apogossypolone and radiation.
# [11] = target: T2, recombinant human Bcl-xL (Homo sapiens, UniProt Q07817); test: Fluorescence polarization binding assay for Bcl-xL (Bak-Flu peptide displacement)
# T2 construct: fused to a His-tag without the C-terminus hydrophobic tail; His-tag
# Description: Fluorescence polarization (FP)-based binding assays for Bcl-2 and Bcl-xL were developed and optimized using recombinant human Bcl-2 and Bcl-xL proteins, a Bid BH3 peptide labeled with 6-carboxyfluorescein succinimidyl ester (FAM) and Bak BH3 peptide labeled with 6-(fluorescein-5(6)-carboxamido) hexanoic acid (Flu). The FP-based binding assays measure the ability of an inhibitor to displace either Bid-FAM or Bak-Flu peptide from Bcl-2 or Bcl-xL protein, respectively. The dose-dependent binding experiments were carried out with serial dilutions of the tested compounds in DMSO. For the Bcl-2 binding assay, a 5 μl sample of the inhibitor and preincubated recombinant His-fused soluble Bcl-2 protein (120 nM) with Bid-FAM peptide (10 nM) in the assay buffer (100 mM potassium phosphate, pH 7.5; 100 μg/ml bovine gamma globulin; 0.02% sodium azide, purchased from Invitrogen, Life Technologies), were added in Dynex 96-well, black, round-bottom plates (Fisher Scientific), to produce a final volume of 125 μl. […] The polarization values were measured after 3-4 hr incubation, using an ULTRA READER (Tecan U.S. Inc., Research Triangle Park, N.C.). The Ki value was calculated using a modified Cheng-Prusoff equation based upon the Kd value for the Bid-FAM peptide to Bcl-2, the measured IC50 value, and the concentrations of the protein and Bid-FAM. […]
# [12] = MDA-MB-435; read-out: IC50 (μM) MDA-MB-435
# [13] = MDA-MB-231 (subclone 2LMP), read-out: IC50 (μM) MDA-MB-231
# [14] = Homo sapiens, MDA-MB-435, read-out: IC50 (μM) MDA-MB-435
# [15] = Homo sapiens, MDA-MB-231, read-out: IC50 (μM) MDA-MB-231
# [16] = Homo sapiens, T47D, read-out: IC50 (μM) T47D
# [17] = intravenous, every other day and 3 days/week
# [18] = Homo sapiens, PC-3 cells, 4-6 day MTT assay, read-out: IC50, inhibition of cell growth
# [19] = FP-based binding assay, Ki calculated from IC50 with modified Cheng-Prusoff equation, read-out: Ki
# Sequence of recombinant human Bcl-2 (P10415 92-205 limits assumed): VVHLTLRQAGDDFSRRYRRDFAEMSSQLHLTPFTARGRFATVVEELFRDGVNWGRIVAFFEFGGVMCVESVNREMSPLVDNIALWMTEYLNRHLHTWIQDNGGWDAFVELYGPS
# T1 sequence (Q07820 171-327): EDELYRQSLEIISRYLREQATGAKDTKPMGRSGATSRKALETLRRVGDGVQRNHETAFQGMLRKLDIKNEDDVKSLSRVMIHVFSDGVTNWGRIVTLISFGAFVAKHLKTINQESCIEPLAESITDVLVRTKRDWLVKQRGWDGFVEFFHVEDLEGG
# T2 sequence (Q07817 1-209 limits assumed): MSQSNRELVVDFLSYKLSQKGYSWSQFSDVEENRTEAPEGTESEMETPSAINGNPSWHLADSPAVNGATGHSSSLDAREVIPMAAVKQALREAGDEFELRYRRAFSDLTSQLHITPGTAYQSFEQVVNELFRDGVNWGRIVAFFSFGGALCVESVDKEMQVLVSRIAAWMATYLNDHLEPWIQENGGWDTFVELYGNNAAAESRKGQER
smiles,measurement,setting,value
"CC(=O)Oc1cc2c(c(C(C)C)c1OC(C)=O)C(=O)C(C)=C(C1=C(C)C(=O)c3c(cc(OC(C)=O)c(OC(C)=O)c3C(C)C)C1=O)C2=O [Tetra acetyl apogossypolone, tetra-acetyl apogossypolone]",IC50,"[1]; Homo sapiens, MDA-MB-435; read-out: IC50 (μM) MDA-MB-435",6.29 µM
same,IC50,"[2]; Homo sapiens, MDA-MB-231 (subclone 2LMP), read-out: IC50 (μM) MDA-MB-231",1.32 µM
same,IC50,"[3]; Homo sapiens, T47D; read-out: IC50 (μM) T47D",6.33 µM
"Cc1cc2c(C(C)C)c(O)c(O)cc2c(O)c1-c1c(C)cc2c(C(C)C)c(O)c(O)cc2c1O [(+)-Apogossypol, (+)-apogossypol]",IC50,[1]; [12],7.28 µM
same,IC50,[2]; [13],8.81 µM
same,IC50,[3]; T47D; read-out: IC50 (μM) T47D,14 µM
"Cc1cc2c(C(C)C)c(O)c(O)c(C=O)c2c(O)c1-c1c(C)cc2c(C(C)C)c(O)c(O)c(C=O)c2c1O (racemic) [(±)-Gossypol, gossypol]",IC50,[1]; [14],11.4 µM
same,IC50,[2]; [15],11.1 µM
same,IC50,[3]; [16],16.3 µM
"Cc1cc2c(C(C)C)c(O)c(O)c(C=O)c2c(O)c1-c1c(C)cc2c(C(C)C)c(O)c(O)c(C=O)c2c1O [(−)-gossypol, reference compound]",IC50,"[4]; PC-3 cells, 4-6 day MTT assay, read-out: IC50, inhibition of cell growth",6500 nM
same,Ki,"[5]; FP competitive binding, unit inferred, read-out: Ki to Mcl-1",180 ± 10 nM
same,maximal tolerated dose (MTD),[6]; [17],about 10 mg/kg
same,maximal tolerated dose (MTD),[6]; oral gavage 5 days/week,about 50 mg/kg
same,IC50,[7]; LnCap cell line,4700 nM
"Cc1cc2c(C(C)C)c(O)c(O)cc2c(O)c1-c1c(C)cc2c(C(C)C)c(O)c(O)cc2c1O [(−)-Apogossypol, (−)-apogossypol]",IC50,[1]; [12],3.13 µM
same,IC50,[2]; [13],2.31 µM
same,IC50,[3]; T47D; read-out: IC50 (μM) T47D,4.26 µM
CC1=C(C2=C(C)C(=O)c3c(c(C(=O)O)c(O)c(O)c3C(C)C)C2=O)C(=O)c2c(C(=O)O)c(O)c(O)c(C(C)C)c2C1=O [gossypolonic acid],IC50,[4]; [18],> 10000 nM
same,Ki,[8]; [19],280 nM
Cc1cc2c(C(C)C)c(O)c(O)c(C(=O)O)c2c(O)c1-c1c(C)cc2c(C(C)C)c(O)c(O)c(C(=O)O)c2c1O [gossypolic acid],IC50,[4]; [18],> 10000 nM
same,Ki,[8]; [19],120 nM
CC[C@H](C)[C@H](NC(=O)[C@H](CC(N)=O)NC(=O)[C@H](CCCN=C(N)N)NC(=O)[C@@H](NC(=O)[C@@H](NC(=O)[C@H](CC(=O)O)NC(=O)[C@H](CCC(=O)O)NC(=O)[C@@H](N)CCC(N)=O)[C@@H](C)CC)[C@@H](C)CC)C(=O)N[C@@H](C)C(=O)N[C@@H](CCCN=C(N)N)C(=O)N[C@@H](Cc1c[nH]cn1)C(=O)N[C@@H](CC(C)C)C(=O)N[C@@H](C)C(=O)N[C@@H](CCC(N)=O)C(=O)N[C@H](C(=O)NCC(=O)N[C@@H](CC(=O)O)C(=O)N[C@@H](CO)C(=O)N[C@@H](CCSC)C(=O)N[C@@H](CC(=O)O)C(=O)N[C@@H](CCCN=C(N)N)C(=O)O)C(C)C [unlabeled Bid 21mer peptide],Ki,[5],5.7 ± 1.1 nM
CC[C@H](C)[C@H](NC(=O)[C@H](CC(N)=O)NC(=O)[C@H](CCCNC(=N)N)NC(=O)[C@@H](NC(=O)[C@@H](NC(=O)[C@H](CC(=O)O)NC(=O)[C@H](CCC(=O)O)NC(=O)[C@H](CCC(N)=O)NC(=O)c1ccc2c(c1)C1(OC2=O)c2ccc(O)cc2Oc2cc(O)ccc21)[C@@H](C)CC)[C@@H](C)CC)C(=O)N[C@@H](C)C(=O)N[C@@H](CCCNC(=N)N)C(=O)N[C@@H](Cc1c[nH]cn1)C(=O)N[C@@H](CC(C)C)C(=O)N[C@@H](C)C(=O)N[C@@H](CCC(N)=O)C(=O)N[C@H](C(=O)NCC(=O)N[C@@H](CC(=O)O)C(=O)N[C@@H](CO)C(=O)N[C@@H](CCSC)C(=O)N[C@@H](CC(=O)O)C(=O)N[C@@H](CCCNC(=N)N)C(=O)O)C(C)C [Flu-Bid-21],Kd,"[5]; probe concentration 0.5 nM, read-out: apparent Kd for Mcl-1",0.7 nM
same,Kd,"[5]; probe concentration 1 nM, saturation experiment, read-out: Kd for Mcl-1",0.83 nM
same,Kd,"[5]; probe concentration 2.5 nM, read-out: apparent Kd for Mcl-1",1.05 nM
same,Kd,"[5]; probe concentration 5 nM, read-out: apparent Kd for Mcl-1",1.32 nM
Cc1cc2c(C(C)C)c(O)c(O)cc2c(O)c1-c1c(C)cc2c(C(C)C)c(O)c(O)cc2c1O [apogossypol],potency relative to (−)-gossypol in inhibition of cell growth,[4],as potent as (−)-gossypol
same,Ki,[8],200 nM
same,time in which the sample decomposed,[9]; stored at −20° C. and under nitrogen,≤ 1 week
same,IC50,[1]; [14],3.39 µM
same,fold more potent than gossypol,[1]; MDA-MB-435 cell line,about 3 fold
same,IC50,[2]; [15],2.37 µM
same,fold more potent than gossypol,[2],about 5 fold
same,IC50,[3]; [16],6.51 µM
same,fold more potent than gossypol,[3]; T47D cell line,about 2.5 fold
"CC1=C(C2=C(C)C(=O)c3c(cc(O)c(O)c3C(C)C)C2=O)C(=O)c2cc(O)c(O)c(C(C)C)c2C1=O (racemic) [apogossypolone, 6,7,6′,7′-Tetrahydroxy-5,5′-diisopropyl-3,3′-dimethyl-[2,2′]binaphthalenyl-1,4,1′,4′-tetraone]",IC50,"[4]; Homo sapiens, PC-3, read-out: IC50, inhibition of cell growth",2200 nM
same,potency relative to (−)-gossypol in inhibition of cell growth,[4],3-4 times
same,Ki,[8],76 nM
same,complete tumor regression,[10]; apogossypolone 200 mg/kg p.o. plus X-ray radiation 2 Gy q.d. 5×3 weeks,seven out of ten
same,complete tumor regression,"[10]; apogossypolone alone, 200 mg/kg p.o.",zero out of ten
same,effect on the tumors,"[10]; apogossypolone alone, 200 mg/kg p.o. q.d. 5×4 weeks",limited effect
same,enhancement of radiation-mediated tumor inhibition,"[10]; combination with X-ray radiation, P<0.0001, two-way ANOVA, n=10",significantly enhanced
same,Ki,[11],1270 nM
same,Ki,[5],51 ± 20 nM
same,fold better binding affinity compared with (−)-gossypol,[5]; Mcl-1,3.5 fold
same,decomposition on storage,[9]; stored at room temperature for several weeks without the protection of nitrogen,no decomposition was detected
same,IC50,[1]; [14],4.82 µM
same,fold more potent than gossypol,[1]; MDA-MB-435 cell line,about 2 fold
same,MTD relative to (−)-gossypol,[6]; both routes of administration,8 times
same,MTD,[6]; [17],~80 mg/kg
same,MTD,[6]; oral gavage 5 days/week,> 240 mg/kg
same,IC50,[2]; [15],1.27 µM
same,fold more potent than gossypol,[2],about 9 fold
same,IC50,"[7]; Homo sapiens, LNCaP",1300 nM
same,IC50,[3]; [16],9.26 µM
same,fold more potent than gossypol,[3]; T47D cell line,about 2 fold

# Reference: US20060178435A1, “Apogossypolone and the uses thereof” (The Regents of the University of Michigan, priority 2004, published 2006)
